The source made the active and inactive calls.
Legend:
[1] = biological target: Beta-adrenergic receptor kinase 1 (Homo sapiens, UniProt P25098); test: blockers of aptamer binding to GRK2 – biochemical, flow cytometry beads, FAM-aptamer, powder set 1, dose response (AID 588720)
CAAX prenyl protease 2 [2] = biological target: CAAX prenyl protease 2 (Saccharomyces cerevisiae S288c, UniProt Q03530); assay type: biochemical
CAAX prenyl protease 2 [3] = biological target: CAAX prenyl protease 2 (Homo sapiens, UniProt Q9Y256); test: inhibition of Ras-converting CAAX protease Rce1 – biochemical, yeast membranes, quenched-peptide fluorescence, cherry-pick, dose response (AID 588849)
[4] = biological target: Dual specificity protein phosphatase 3 (Homo sapiens, UniProt P51452); test: SAR VHR1 Fluorescent Assay for In Vitro dose response studies Set 3. [Related pubchem assays (depositor defined):AID1654, AID1661, AID1878]; assay type: functional
Phospholipase A2 = Phospholipase A2 (Homo sapiens, UniProt P04054); test: phospholipase A2 activity inhibition – biochemical, set 2, counter-screen for ATG4B inhibitor project, dose response (AID 588586); assay type: functional
[5] = DRD fibroblast viability loss – cell-based, non-viral oncogenic, luminescence, dose response (AID 1934); assay type: functional; conditions: Homo sapiens
Cysteine protease ATG4B = biological target: T1, Cysteine protease ATG4B (Homo sapiens, UniProt Q9Y4P1); test: autophagin-1 cysteine protease inhibition – biochemical, fluorescence, set 2, dose response (AID 588584); assay type: functional
T1 sequence (Q9Y4P1 whole entry): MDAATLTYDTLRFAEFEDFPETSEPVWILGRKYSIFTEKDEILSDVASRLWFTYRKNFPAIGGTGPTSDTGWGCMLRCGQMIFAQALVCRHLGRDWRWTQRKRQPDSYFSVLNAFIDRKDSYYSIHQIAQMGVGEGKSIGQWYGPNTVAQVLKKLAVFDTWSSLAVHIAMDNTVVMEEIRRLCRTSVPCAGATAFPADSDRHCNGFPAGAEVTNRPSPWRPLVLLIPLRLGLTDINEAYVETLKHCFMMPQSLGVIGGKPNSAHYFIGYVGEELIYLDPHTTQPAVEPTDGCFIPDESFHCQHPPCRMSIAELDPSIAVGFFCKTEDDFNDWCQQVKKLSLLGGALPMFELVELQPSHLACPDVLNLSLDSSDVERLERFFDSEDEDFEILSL

BJ [6] = test: BJ-TERT fibroblast viability loss – cell-based, RAS-independent, luminescence, dose response (AID 1933); assay type: functional; conditions: Homo sapiens
BJ [7] = test: cells; assay type: functional, cell-based; conditions: Homo sapiens

Sequence of Phospholipase A2 (P04054 whole entry): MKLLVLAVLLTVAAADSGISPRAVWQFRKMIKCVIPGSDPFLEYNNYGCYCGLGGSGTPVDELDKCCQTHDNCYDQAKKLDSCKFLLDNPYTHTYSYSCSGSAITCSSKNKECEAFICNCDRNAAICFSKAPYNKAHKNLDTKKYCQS
Sequence of Dual specificity protein phosphatase 3 (P51452 whole entry): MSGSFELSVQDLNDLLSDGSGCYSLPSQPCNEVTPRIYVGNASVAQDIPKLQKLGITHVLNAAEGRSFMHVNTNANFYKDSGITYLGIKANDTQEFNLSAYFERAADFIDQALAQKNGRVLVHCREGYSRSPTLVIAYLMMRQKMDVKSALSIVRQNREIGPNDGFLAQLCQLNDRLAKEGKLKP
Sequence of CAAX prenyl protease 2 (Saccharomyces cerevisiae S288c, UniProt Q03530) (Q03530 whole entry): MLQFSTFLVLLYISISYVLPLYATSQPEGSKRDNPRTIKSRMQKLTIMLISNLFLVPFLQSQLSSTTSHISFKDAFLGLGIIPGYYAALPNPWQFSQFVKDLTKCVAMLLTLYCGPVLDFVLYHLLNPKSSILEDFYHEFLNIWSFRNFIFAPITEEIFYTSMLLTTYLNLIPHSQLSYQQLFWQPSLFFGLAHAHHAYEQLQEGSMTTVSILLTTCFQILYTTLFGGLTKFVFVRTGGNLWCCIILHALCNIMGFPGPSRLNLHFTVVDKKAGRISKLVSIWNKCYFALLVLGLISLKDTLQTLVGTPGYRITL
Sequence of Beta-adrenergic receptor kinase 1 (P25098 whole entry): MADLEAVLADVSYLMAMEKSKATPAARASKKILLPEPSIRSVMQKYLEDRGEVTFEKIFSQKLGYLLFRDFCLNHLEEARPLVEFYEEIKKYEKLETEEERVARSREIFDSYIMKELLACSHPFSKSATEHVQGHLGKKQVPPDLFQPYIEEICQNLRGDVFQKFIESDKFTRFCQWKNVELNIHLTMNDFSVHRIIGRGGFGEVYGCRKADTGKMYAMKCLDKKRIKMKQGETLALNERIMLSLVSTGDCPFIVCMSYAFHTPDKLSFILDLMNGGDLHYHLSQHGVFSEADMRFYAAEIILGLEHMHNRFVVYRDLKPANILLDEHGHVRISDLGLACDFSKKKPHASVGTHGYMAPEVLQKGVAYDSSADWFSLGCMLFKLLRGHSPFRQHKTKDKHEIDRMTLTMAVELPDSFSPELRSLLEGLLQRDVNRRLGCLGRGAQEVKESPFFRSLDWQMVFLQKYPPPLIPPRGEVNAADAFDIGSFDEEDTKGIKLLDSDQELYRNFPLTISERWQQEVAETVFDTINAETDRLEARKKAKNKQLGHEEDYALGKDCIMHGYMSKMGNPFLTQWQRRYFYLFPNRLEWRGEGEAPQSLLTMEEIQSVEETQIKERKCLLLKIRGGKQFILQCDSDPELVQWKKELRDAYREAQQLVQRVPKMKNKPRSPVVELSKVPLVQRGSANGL
Sequence of CAAX prenyl protease 2 (Homo sapiens, UniProt Q9Y256) (Q9Y256 whole entry): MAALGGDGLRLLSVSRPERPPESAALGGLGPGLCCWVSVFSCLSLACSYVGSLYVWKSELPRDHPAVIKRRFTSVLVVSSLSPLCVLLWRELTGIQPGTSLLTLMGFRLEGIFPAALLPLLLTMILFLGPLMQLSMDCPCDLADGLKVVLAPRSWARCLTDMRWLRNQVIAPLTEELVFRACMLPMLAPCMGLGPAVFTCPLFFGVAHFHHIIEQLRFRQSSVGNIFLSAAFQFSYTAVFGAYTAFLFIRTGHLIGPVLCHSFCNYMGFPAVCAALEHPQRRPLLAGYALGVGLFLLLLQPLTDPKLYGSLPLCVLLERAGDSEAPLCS

With `COc1ccc(NC(=O)CCS(=O)(=O)c2ccc(Br)s2)cc1` the EC50 [1] was 9.14 µM (active).

For `CC1Oc2ccccc2C=C1/C=N/NC(=O)[C@@H](C)NC(=O)OC(C)(C)C` (some centres undefined), the AC50 (CAAX prenyl protease 2 [2]) was 57 µM (active) and the AC50 (CAAX prenyl protease 2 [3]) was 23.1 µM (active).

For `Cn1cnnc1SCC(=O)Nc1ccc2nc(SCC(=O)c3ccccc3)sc2c1`, the IC50 [4] was > 66 µM (inactive).

With `CCC1=Nc2cc(C(=O)NCc3ccco3)ccc2Sc2ccc(Cl)cc21` the IC50 (Phospholipase A2) was 40.1 µM (inactive), the EC50 [5] was 1.97 µM (active) and the IC50 (Cysteine protease ATG4B) was > 80 µM (inactive). For the same molecule, the EC50 (BJ [6]) was 1.55 µM (active) and the EC50 (BJ [7]) was 20.4 µM (active).

— ChEMBL document CHEMBL1201862, “PubChem BioAssay data set” (2004)
